Source: US20030134859A1 (SANKYO COMPANY, LIMITED, priority 2000, published 2003)
Counter-ions that a name gives are not always drawn.

Assays:
Rat white adipocytes = assay: Inhibition of the differentiation of adipocytes (Oil Red O); type: cell-based; settings: 100 nM test compound, 5 days, Oil Red O ABS550, control = 100%, blank = 0%, Table 3; for activity at 0.1 µM: Rattus norvegicus, Adipocyte, 120 h, read-out: Rate of Differentiation (%)
Summary of the method: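 Rat white preadipocytes, 5,000 cells/well, given differentiation medium with compound at 100 nM final (0.1% DMSO) for 5 days at 37 °C. Lipid stained with Oil Red O, eluted in DMSO, read at 550 nm; differentiation % relative to DMSO control (100%) and blank (0%).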

leptin production = assay: Enhancing activity for leptin production in adipocytes (ELISA); type: cell-based, rat; settings: leptin concentration as % of control group; for Facilitating activity to produce leptin: 24 hr
Summary of the method: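 Collagenase-dispersed epididymal adipocytes from 6-week-old male Wistar Imamichi rats, cultured in DMEM/F-12 (1:1) with test compound at final 1 µM, 100 nM, 10 nM or 1 nM (0.1% DMSO) for 24 h at 37 °C, 5% CO2. Leptin in filtrate measured by ELISA; activity = treated/DMSO-control leptin × 100 (%).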

[1] = Rattus norvegicus, Adipocyte, 24 h, 1 μM, read-out: Facilitating activity to produce leptin
[2] = Rattus norvegicus, Adipocyte, 24 h, 10 nm, read-out: Facilitating activity to produce leptin
[3] = Rattus norvegicus, Adipocyte, 24 h, 100 nm, read-out: Facilitating activity to produce leptin

With `Cc1ccc2nc(-c3ccc(NC(=O)c4cc([N+](=O)[O-])ccc4Cl)cc3)sc2c1` [Example 10, N-[4-(6-Methylbenzothiazol-2-yl)phenyl]-(2-chloro-5-nitrophenyl)carboxamide] the activity at 0.1 µM (Rat white adipocytes) was 51.1% and the activity at 1 µM (leptin production; [1]) was 118%.

`N#Cc1ccc(NC(=O)c2cc([N+](=O)[O-])ccc2Cl)cc1` [Example 20, N-(4-Cyanophenyl)-(2-chloro-5-nitrophenyl)carboxamide] was tested, and the activity at 0.1 µM (Rat white adipocytes) was 57.7%, the activity at 1 µM (leptin production; [1]) was 126% and the activity at 0.001 µM (leptin production; Rattus norvegicus, Adipocyte, 24 h, 1 nm, read-out: Facilitating activity to produce leptin) was 130%. The activity at 0.01 µM (leptin production; [2]) was 135% and the activity at 0.1 µM (leptin production; [3]) was 155%.

In the case of `Nc1ccc(NC(=O)c2cc([N+](=O)[O-])ccc2Cl)cc1` [Example 58, N-(4-Aminophenyl)-(2-chloro-5-nitrophenyl)carboxamide mono-hydrochloride], the activity at 0.1 µM (Rat white adipocytes) is reported as 51.7%.

Work on `CC(C)(C)OC(=O)Nc1ccc(-c2ccc(NC(=O)c3cc([N+](=O)[O-])ccc3Cl)cc2)cc1` [Example 87, N-[4-[4-(tert-Butoxycarbonylamino)phenyl]phenyl]-(2-chloro-5-nitrophenyl)carboxamide] yielded an activity at 0.1 µM (Rat white adipocytes) of 75.2%, an activity at 1 µM (leptin production; [1]) of 115% and an activity at 0.1 µM (leptin production; [3]) of 113%.

`O=C(Nc1cccc(O)c1)c1cc([N+](=O)[O-])ccc1Cl` [Example 191, N-(3-Hydroxyphenyl)-(2-chloro-5-nitrophenyl)carboxamide] was tested, and the activity at 0.1 µM (Rat white adipocytes) was 63.4%.

`CCCCCCNc1ccc(-c2ccc(NC(=O)c3cc([N+](=O)[O-])ccc3Cl)cc2)cc1` [Example 195, N-[4-[4-(N-Hexylamino)phenyl]phenyl]-(2-chloro-5-nitrophenyl)carboxamide] showed an activity at 0.1 µM (Rat white adipocytes) of 36.5%, an activity at 1 µM (leptin production; [1]) of 120% and an activity at 0.01 µM (leptin production; [2]) of 114%. The activity at 0.1 µM (leptin production; [3]) was 123%.

Molecule `CCCCCCN(C)c1ccc(-c2ccc(NC(=O)c3cc([N+](=O)[O-])ccc3Cl)cc2)cc1` [Example 196, N-[4-[4-(N-Hexyl-N-methylamino)phenyl]phenyl]-(2-chloro-5-nitrophenyl)carboxamide] has an activity at 0.1 µM (Rat white adipocytes) of 53.4%.

`CCCCCCN(CC)c1ccc(-c2ccc(NC(=O)c3cc([N+](=O)[O-])ccc3Cl)cc2)cc1` [Example 197, N-[4-[4-(N-Ethyl-N-hexylamino)phenyl]phenyl]-(2-chloro-5-nitrophenyl)carboxamide] showed an activity at 0.1 µM (Rat white adipocytes) of 45.7%.

Work on `CCCCCCCCNc1ccc(-c2ccc(NC(=O)c3cc([N+](=O)[O-])ccc3Cl)cc2)cc1` [Example 219, N-[4-[4-(N-Octylamino)phenyl]phenyl]-(2-chloro-5-nitrophenyl)carboxamide] yielded an activity at 0.1 µM (Rat white adipocytes) of 36.6%, an activity at 1 µM (leptin production; [1]) of 117% and an activity at 0.01 µM (leptin production; [2]) of 113%. The activity at 0.1 µM (leptin production; [3]) was 119%.

With `CCCCCCCCN(CCCCCC)c1ccc(-c2ccc(NC(=O)c3cc([N+](=O)[O-])ccc3Cl)cc2)cc1` [Example 220, N-[4-[4-(N-Hexyl-N-octylamino)phenyl]phenyl]-(2-chloro-5-nitrophenyl)carboxamide mono-hydrochloride] the activity at 0.1 µM (Rat white adipocytes) was 38.4% and the activity at 1 µM (leptin production; [1]) was 111%.

Molecule `CCCCCCCCN(CCCC)c1ccc(-c2ccc(NC(=O)c3cc([N+](=O)[O-])ccc3Cl)cc2)cc1` [Example 222, N-[4-[4-(N-Butyl-N-octylamino)phenyl]phenyl]-(2-chloro-5-nitrophenyl)carboxamide] has an activity at 0.1 µM (Rat white adipocytes) of 48.6%, an activity at 1 µM (leptin production; [1]) of 114% and an activity at 0.01 µM (leptin production; [2]) of 110%. For the same molecule, the activity at 0.1 µM (leptin production; [3]) was 109%.

In the case of `CCCCCCCCN(CCCC)c1ccc(-c2ccc(NC(=O)c3cc([N+](=O)[O-])ccc3Cl)cc2)cc1.Cl` [Example 223, N-[4-[4-(N-Butyl-N-octylamino)phenyl]phenyl]-(2-chloro-5-nitrophenyl)carboxamide mono-hydrochloride], the “Rate of Differentiation (%)” value (Rat white adipocytes) is reported as 35.0%, the “Facilitating activity to produce leptin” value (leptin production; 1 μM) is reported as 115.9% and the “Facilitating activity to produce leptin” value (leptin production; 10 nm) is reported as 109.0%. For the same molecule, the “Facilitating activity to produce leptin” value (leptin production; 100 nm) was 115.2%.

Molecule `CCCCCCCCN(CCC)c1ccc(-c2ccc(NC(=O)c3cc([N+](=O)[O-])ccc3Cl)cc2)cc1` [Example 224, N-[4-[4-(N-Octyl-N-propylamino)phenyl]phenyl]-(2-chloro-5-nitrophenyl)carboxamide] has an activity at 0.1 µM (Rat white adipocytes) of 40.9%, an activity at 1 µM (leptin production; [1]) of 113% and an activity at 0.01 µM (leptin production; [2]) of 110%. The activity at 0.1 µM (leptin production; [3]) was 112%.

Work on `CCCCCCCCN(CC)c1ccc(-c2ccc(NC(=O)c3cc([N+](=O)[O-])ccc3Cl)cc2)cc1` [Example 225, N-[4-[4-(N-Ethyl-N-octylamino)phenyl]phenyl]-(2-chloro-5-nitrophenyl)carboxamide] yielded an activity at 0.1 µM (Rat white adipocytes) of 45.9%, an activity at 1 µM (leptin production; [1]) of 117% and an activity at 0.01 µM (leptin production; [2]) of 107%. It also gave an activity at 0.1 µM (leptin production; [3]) of 108%.

In the case of `O=C(Nc1ccc(N2CCN(C(=O)c3ccncc3)CC2)cc1)c1cc([N+](=O)[O-])ccc1Cl` [Example 228, N-[4-[4-(Pyridin-4-ylcarbonyl)piperazin-1-yl]phenyl]-(2-chloro-5-nitrophenyl)carboxamide], the activity at 0.1 µM (Rat white adipocytes) is reported as 17.5%, the activity at 1 µM (leptin production; [1]) is reported as 112% and the activity at 0.01 µM (leptin production; [2]) is reported as 119%. It also gave an activity at 0.1 µM (leptin production; [3]) of 122%.

Molecule `O=C(Nc1ccc(CCO)cc1)c1cc([N+](=O)[O-])ccc1Cl` [Example 230, N-[4-(2-Hydroxyethyl)phenyl]-(2-chloro-5-nitrophenyl)carboxamide] has an activity at 0.1 µM (Rat white adipocytes) of 48.9% and an activity at 0.01 µM (leptin production; [2]) of 110%.

`O=C(Nc1ccc(-n2ccnc2)cc1)c1cccc(NC(=O)c2cc([N+](=O)[O-])ccc2Cl)c1` [Example 231, N-[[3-[4-(Imidazol-1-yl)phenyl]aminocarbonyl]phenyl]-(2-chloro-5-nitrophenyl)carboxamide] was tested, and the activity at 0.1 µM (Rat white adipocytes) was 20.1%, the activity at 0.01 µM (leptin production; [2]) was 128% and the activity at 0.1 µM (leptin production; [3]) was 155%.

With `CCN(c1ccc(NS(=O)(=O)c2ccc(NC(=O)c3cc([N+](=O)[O-])ccc3Cl)cc2)cc1)C(C)C` [Example 232, N-[[4-[4-(N-Ethyl-N-isopropylamino)phenyl]aminosulfonyl]phenyl]-(2-chloro-5-nitrophenyl)carboxamide] the activity at 0.1 µM (Rat white adipocytes) was 45.4%.

`Nc1nc(-c2cccc(NC(=O)c3cc([N+](=O)[O-])ccc3Cl)c2)cs1` [Example 233, N-[3-(2-Amiothiazol-4-yl)phenyl]-(2-chloro-5-nitrophenyl)carboxamide] gave an activity at 0.1 µM (Rat white adipocytes) of 47.4%, an activity at 0.01 µM (leptin production; [2]) of 112% and an activity at 0.1 µM (leptin production; [3]) of 121%.

With `CC(C)(C)OC(=O)Nc1cccc(-c2csc(NC(=O)c3cc([N+](=O)[O-])ccc3Cl)n2)c1` [Example 234, N-[4-(3-tert-Butoxycarbonylaminophenyl)thiazol-2-yl]-(2-chloro-5-nitrophenyl)carboxamide] the activity at 0.1 µM (Rat white adipocytes) was 60.5%.

With `CS(=O)(=O)N(c1ccc(-c2ccc(NC(=O)c3cc([N+](=O)[O-])ccc3Cl)cc2)cc1)S(C)(=O)=O` [Example 235, N-[4-[4-(N,N-Dimethanesulfonylamino)phenyl]phenyl]-(2-chloro-5-nitrophenyl)carboxamide] the activity at 0.1 µM (Rat white adipocytes) was 3.6%, the activity at 1 µM (leptin production; [1]) was 143% and the activity at 0.01 µM (leptin production; [2]) was 111%. The activity at 0.1 µM (leptin production; [3]) was 121%.

`CC(O)c1cccc(NC(=O)c2cc([N+](=O)[O-])ccc2Cl)c1` (stereo not drawn) [Example 239, N-[3-(1-Hydroxyethyl)phenyl]-(2-chloro-5-nitrophenyl)carboxamide] gave an activity at 0.1 µM (Rat white adipocytes) of 52.8%.

`O=C(Nc1ccc(NC(=S)Nc2cccnc2)cc1)c1cc([N+](=O)[O-])ccc1Cl` [Example 257, N-[4-[(Pyridin-3-yl)aminothiocarbonylamino]phenyl]-(2-chloro-5-nitrophenyl)carboxamide] gave an activity at 0.1 µM (Rat white adipocytes) of 59.8%.

Molecule `O=C(Nc1ccc(-c2ccc(NC(=S)Nc3ccncc3)cc2)cc1)c1cc([N+](=O)[O-])ccc1Cl` [Example 258, N-[4-[4-[(Pyridin-4-yl)aminothiocarbonylamino]phenyl]phenyl]-(2-chloro-5-nitrophenyl)carboxamide] has an activity at 0.1 µM (Rat white adipocytes) of 39%, an activity at 1 µM (leptin production; [1]) of 112% and an activity at 0.01 µM (leptin production; [2]) of 120%. It also gave an activity at 0.1 µM (leptin production; [3]) of 114%.

`O=C(Nc1ccc(NC(=S)Nc2ccncc2)cc1)c1cc([N+](=O)[O-])ccc1Cl` [Example 259, N-[4-[(Pyridin-4-yl)aminothiocarbonylamino]phenyl]-(2-chloro-5-nitrophenyl)carboxamide] showed an activity at 0.1 µM (Rat white adipocytes) of 56.5%, an activity at 0.01 µM (leptin production; [2]) of 111% and an activity at 0.1 µM (leptin production; [3]) of 110%.

Molecule `NCCc1ccc(NC(=O)c2cc([N+](=O)[O-])ccc2Cl)cc1` [Example 267, N-[4-(2-Aminoethyl)phenyl]-(2-chloro-5-nitrophenyl)carboxamide] has an activity at 0.1 µM (Rat white adipocytes) of 47.3%, an activity at 0.01 µM (leptin production; [2]) of 118% and an activity at 0.1 µM (leptin production; [3]) of 110%.

Work on `O=C(Nc1ccc(CCNC(=S)Nc2cccnc2)cc1)c1cc([N+](=O)[O-])ccc1Cl` [Example 273, N-[4-[2-(Pyridin-3-yl)aminothiocarbonylaminoethyl]phenyl]-(2-chloro-5-nitrophenyl)carboxamide] yielded an activity at 0.1 µM (Rat white adipocytes) of 47.9%.

In the case of “N-(Ethoxyphenyl)-(2-chloro-5-nitrophenyl)carboxamide [Example 229]”, the “Rate of Differentiation (%)” value (Rat white adipocytes) is reported as 62.7%.
